Three compounds from US20220031853A1, “HSP90-TARGETING CONJUGATES AND FORMULATIONS THEREOF” (TARVEDA THERAPEUTICS, INC., priority 2018, published 2022) can be followed below.

SMILES strings stand for the structures.

Experiment [1] addresses T1, purified recombinant HSP90a (Homo sapiens, UniProt P07900).
T1 construct: purchased
Put plainly: HSP90a Assay Kit, fluorescence polarization competition with fluorescently labeled geldanamycin. The following applies: read-out: HSP90 Binding Kd. How it is done: The bindings of the conjugates to HSP90 were studied with the HSP90a Assay Kit. The HSP90a Assay Kit is designed for identification of HSP90a inhibitors using fluorescence polarization. The assay is based on the competition of fluorescently labeled geldanamycin for binding to purified recombinant HSP90a. The key to the HSP90a Assay Kit is the fluorescently labeled geldanamycin. The fluorescently labeled geldanamycin is incubated with a sample containing HSP90a enzyme to produce a change in fluorescent polarization that can then be measured using a fluorescence reader.
(In general: Fluorescence polarisation rises when a labelled molecule tumbles more slowly, as on binding a larger partner.)

Experiment [2] deals with LS174T (colon) tumor cells. Put plainly: Tumor cell cytotoxicity assay (CellTiter-Glo), LS174T. It is filed as cell-based. Particulars: Homo sapiens, 72 hrs, CellTiter-Glo ATP levels, read-out: in vitro cytotoxicity IC50. How it is done:
(§1) Tumor cells were plated at 500-5,000 cells per well and incubated for 20-24 hrs at 37 °C at 5% CO2. Post cell incubation, compounds were reconstituted in DMSO to a stock concentration of 200 uM. A compound plate was then prepared containing a 10 point dilution in RPMI+10% FBS+0.25% DMSO. 5 uL of the dilution was then added for a final working concentration range of 10 uM to 0.0005 uM. Compounds and cells were then incubated for up to 72 hrs. Cells were then analyzed by CellTiter-Glo for ATP levels and percent inhibition calculated.
(§2) BT474 (breast), LS174T (colon), or HCT-116 (colon) tumor cells were plated at 2500 cells per well and incubated for 20-24 hrs at 37 °C at 5% CO2. Post cell incubation, compounds were reconstituted in DMSO to a stock concentration of 200 uM. A compound plate was then prepared containing a 10 point dilution in RPMI+10% FBS+0.25% DMSO. 5 uL of the dilution was then added for a final working concentration range of 10 uM to 0.0005 uM. Compounds and cells were then incubated for 72 hrs. Cells were then analyzed by CellTiter-Glo for ATP levels and percent inhibition calculated.
On the technique in general: In ATP-based viability assays light output follows the ATP content of the culture.

In experiment [3] the test system is HCT-116 (colon) tumor cells. Put plainly: Tumor cell cytotoxicity assay (CellTiter-Glo), HCT-116. It is filed as cell-based. The following applies: Homo sapiens; HCT-116 cells, 72 hrs, CellTiter-Glo ATP levels; read-out: in vitro cytotoxicity IC50. The method, then:
as §1, §2

Experiment [4] has as its system BT474 (breast) tumor cells. The experiment is described as follows: Tumor cell cytotoxicity assay (CellTiter-Glo), BT474. It is filed as cell-based. Particulars: Homo sapiens, BT-474, 72 hrs, CellTiter-Glo ATP levels, read-out: in vitro cytotoxicity IC50. How it is done: as §1, §2
The test system of experiment [5] is NCI-H460 cells (non-small cell lung cancer). The experiment is described as follows: Tumor cell cytotoxicity assay (CellTiter-Glo), NCI-H460. It is filed as cell-based. The following applies: Homo sapiens, 48 hrs, CellTiter-Glo ATP levels, read-out: in vitro cytotoxicity IC50. The method, then: as §1
NCI-H460 cells (non-small cell lung cancer) were plated at 500 cells per well and incubated for 20-24 hrs at 37° C. at 5% CO2. Post cell incubation, compounds were reconstituted in DMSO to a stock concentration of 200 uM. A compound plate was then prepared containing a 10 point dilution in RPMI+10% FBS+0.25% DMSO. 5 uL of the dilution was then added for a final working concentration range of 10 uM to 0.0005 uM. Compounds and cells were then incubated for 48 hrs. Cells were then analyzed by CellTiter-Glo for ATP levels and percent inhibition calculated.

Consider `CCNC(=O)c1nnc(-c2cc(C(C)C)c(O)cc2O)n1-c1ccc(CN2CCN(C(=O)[C@H](N)Cc3ccc(OC(=O)N4CCN(c5ccc(-n6c(=O)n(C)c7cnc8ccc(-c9ccc(OC)nc9)cc8c76)cc5C(F)(F)F)CC4)cc3)CC2)cc1` [Compound 26], for which, in experiment [1], the Kd came to 1.22 nM.

Turning to `CCNC(=O)c1nnc(-c2cc(C(C)C)c(O)cc2O)n1-c1ccc(CN2CCN(C(=O)Cc3ccc(OC(=O)N4CCN(c5ccc(-n6c(=O)n(C)c7cnc8ccc(-c9ccc(OC)nc9)cc8c76)cc5C(F)(F)F)CC4)cc3)CC2)cc1` [Compound 22], the Kd in experiment [1] was found to be 0.79 nM.

`CCNC(=O)c1nnc(-c2cc(C(C)C)c(O)cc2O)n1-c1ccc(CN2CCN(C(=O)Cc3ccc(OC(=O)N(CC)C4CCN(C(=O)c5ccc(NC(=O)Nc6ccc(-c7nc(N8CCOCC8)nc(N8CCOCC8)n7)cc6)cc5)CC4)cc3)CC2)cc1` [Compound 18]: the IC50 in experiment [2] was 3370 nM; in experiment [3], 246 nM; in experiment [4] it was 1640 nM; in experiment [5], 389 nM.

The term Kd denotes the constant that tells how readily two partners part at equilibrium. As usually defined, the IC50 is the concentration needed to halve the response being measured.
